In ChEMBL document CHEMBL3621157, “Design, synthesis and biological evaluation of novel 1,2,4-triazolo and 1,2,4-triazino[4,3-a]quinoxalines as potential anticancer and antimicrobial agents” (2015):
Values after ≈ are worked out from the molar mass of the structure shown.

Legend:
Type in all cases: functional
Candida albicans [1] = test: Antimicrobial activity against Candida albicans DSM 70014 incubated for 48 hrs followed by transfer of colonies to Muller-Hinton agar plate and measured after 18 hrs by two-fold serial broth dilution method
PC-3 = test: Growth inhibition of human PC3 cells at 10 uM incubated for 48 hrs by sulforhodamine B assay; settings: PC-3, 48 h, read-out: GI
Escherichia coli [2] = test: Antimicrobial activity against Escherichia coli ATCC 11775 incubated for 24 hrs by two-fold serial broth dilution method; settings: ATCC 11775, 24 h
Pseudomonas aeruginosa [3] = test: Antimicrobial activity against Pseudomonas aeruginosa ATCC 10145 incubated for 24 hrs by two-fold serial broth dilution method; settings: ATCC 10145, 24 h
Staphylococcus aureus [4] = test: Antimicrobial activity against Staphylococcus aureus DSM 1104 incubated for 24 hrs by two-fold serial broth dilution method; settings: DSM 1104, 24 h
Pseudomonas aeruginosa [5] = test: Antimicrobial activity against Pseudomonas aeruginosa ATCC 10145 incubated for 24 hrs followed by transfer of colonies to Muller-Hinton agar plate and measured after 18 hrs by two-fold serial broth dilution method
Bacillus subtilis [6] = test: Antimicrobial activity against Bacillus subtilis ATCC 6633 incubated at 37 degC for 24 hrs by cup diffusion method
Staphylococcus aureus [7] = test: Antimicrobial activity against Staphylococcus aureus DSM 1104 incubated for 24 hrs followed by transfer of colonies to Muller-Hinton agar plate and measured after 18 hrs by two-fold serial broth dilution method
Candida albicans [8] = test: Antimicrobial activity against Candida albicans DSM 70014 incubated for 48 hrs by two-fold serial broth dilution method; settings: DSM 70014, 48 h
Escherichia coli [9] = test: Antimicrobial activity against Escherichia coli ATCC 11775 incubated for 24 hrs followed by transfer of colonies to Muller-Hinton agar plate and measured after 18 hrs by two-fold serial broth dilution method
Staphylococcus aureus [10] = test: Antimicrobial activity against Staphylococcus aureus DSM 1104 incubated at 37 degC for 24 hrs by cup diffusion method
UO-31 = test: Growth inhibition of human UO31 cells at 10 uM incubated for 48 hrs by sulforhodamine B assay; settings: UO-31, 48 h, read-out: GI
Escherichia coli [11] = test: Antimicrobial activity against Escherichia coli ATCC 11775 incubated at 37 degC for 24 hrs by cup diffusion method
A498 = test: Growth inhibition of human A498 cells at 10 uM incubated for 48 hrs by sulforhodamine B assay; settings: A498, 48 h, read-out: GI
SNB-75 = test: Growth inhibition of human SNB75 cells at 10 uM incubated for 48 hrs by sulforhodamine B assay; settings: SNB-75, 48 h, read-out: GI
Bacillus subtilis [12] = test: Antimicrobial activity against Bacillus subtilis ATCC 6633 incubated for 24 hrs followed by transfer of colonies to Muller-Hinton agar plate and measured after 18 hrs by two-fold serial broth dilution method
Pseudomonas aeruginosa [13] = test: Antimicrobial activity against Pseudomonas aeruginosa ATCC 10145 incubated at 37 degC for 24 hrs by cup diffusion method
Bacillus subtilis [14] = test: Antimicrobial activity against Bacillus subtilis ATCC 6633 incubated for 24 hrs by two-fold serial broth dilution method; settings: ATCC 6633, 24 h
NCI-H226 = test: Growth inhibition of human NCI-H226 cells at 10 uM incubated for 48 hrs by sulforhodamine B assay; settings: NCI-H226, 48 h, read-out: GI
Candida albicans [15] = test: Antimicrobial activity against Candida albicans DSM 70014 incubated at 37 degC for 48 hrs by cup diffusion method
[16] = Growth inhibition of human NCI-ADR-RES cells at 10 uM incubated for 48 hrs by sulforhodamine B assay; settings: read-out: GI
[17] = Growth inhibition of human HOP92 cells at 10 uM incubated for 48 hrs by sulforhodamine B assay; settings: HOP-92, 48 h, read-out: GI
MDA-MB-231 = test: Growth inhibition of human MDA-MB-231 cells at 10 uM incubated for 48 hrs by sulforhodamine B assay; settings: MDA-MB-231, 48 h, read-out: GI
CAKI-1 = test: Growth inhibition of human Caki1 cells at 10 uM incubated for 48 hrs by sulforhodamine B assay; settings: CAKI-1, 48 h, read-out: GI
A549 = test: Growth inhibition of human A549 cells at 10 uM incubated for 48 hrs by sulforhodamine B assay; settings: A549, 48 h, read-out: GI
[18] = Growth inhibition of human EKVX cells at 10 uM incubated for 48 hrs by sulforhodamine B assay; settings: read-out: GI
HCT-15 = test: Growth inhibition of human HCT15 cells at 10 uM incubated for 48 hrs by sulforhodamine B assay; settings: HCT-15, 48 h, read-out: GI
HCT-116 = test: Growth inhibition of human HCT116 cells at 10 uM incubated for 48 hrs by sulforhodamine B assay; settings: HCT-116, 48 h, read-out: GI
[19] = Growth inhibition of human RXF393 cells at 10 uM incubated for 48 hrs by sulforhodamine B assay; settings: RXF 393, 48 h, read-out: GI
HT-29 = test: Growth inhibition of human HT-29 cells at 10 uM incubated for 48 hrs by sulforhodamine B assay; settings: HT-29, 48 h, read-out: GI
NCI-H23 = test: Growth inhibition of human NCI-H23 cells at 10 uM incubated for 48 hrs by sulforhodamine B assay; settings: NCI-H23, 48 h, read-out: GI

c1ccc(Cc2nc3ccccc3n3cnnc23)cc1
MFC (Candida albicans [1]): 200 µg/mL (≈ 768 µM)
inhibition of growth at 10 µM (PC-3): 14.2%
MIC (Escherichia coli [2]): 25 µg/mL (≈ 96 µM)
MIC (Pseudomonas aeruginosa [3]): 50 µg/mL (≈ 192 µM)
MIC (Staphylococcus aureus [4]): 50 µg/mL (≈ 192 µM)
MBC (Pseudomonas aeruginosa [5]): 100 µg/mL (≈ 384 µM)
inhibition zone (IZ) (Bacillus subtilis [6]): 12 mm
MBC (Staphylococcus aureus [7]): 100 µg/mL (≈ 384 µM)
MIC (Candida albicans [8]): 100 µg/mL (≈ 384 µM)
MBC (Escherichia coli [9]): 25 µg/mL (≈ 96 µM)
inhibition zone (IZ) (Staphylococcus aureus [10]): 17 mm
inhibition of growth at 10 µM (UO-31): 22.7%
inhibition zone (IZ) (Escherichia coli [11]): 12 mm
inhibition of growth at 10 µM (A498): 38.7%
inhibition of growth at 10 µM (SNB-75): 23.5%
MBC (Bacillus subtilis [12]): 50 µg/mL (≈ 192 µM)
inhibition zone (IZ) (Pseudomonas aeruginosa [13]): 14 mm
MIC (Bacillus subtilis [14]): 50 µg/mL (≈ 192 µM)
inhibition of growth at 10 µM (NCI-H226): 15.5%
inhibition zone (IZ) (Candida albicans [15]): 17 mm

Cc1nnc2c(Cc3ccccc3)nc3ccccc3n12
MFC (Candida albicans [1]): 200 µg/mL (≈ 729 µM)
MIC (Escherichia coli [2]): 50 µg/mL (≈ 182 µM)
MIC (Pseudomonas aeruginosa [3]): 100 µg/mL (≈ 365 µM)
inhibition of growth at 10 µM [16]: 12.6%
MIC (Staphylococcus aureus [4]): 50 µg/mL (≈ 182 µM)
MBC (Pseudomonas aeruginosa [5]): 100 µg/mL (≈ 365 µM)
inhibition zone (IZ) (Bacillus subtilis [6]): 13 mm
MBC (Staphylococcus aureus [7]): 100 µg/mL (≈ 365 µM)
MIC (Candida albicans [8]): 100 µg/mL (≈ 365 µM)
MBC (Escherichia coli [9]): 50 µg/mL (≈ 182 µM)
inhibition zone (IZ) (Staphylococcus aureus [10]): 12 mm
inhibition zone (IZ) (Escherichia coli [11]): 12 mm
inhibition of growth at 10 µM (SNB-75): 21.9%
MBC (Bacillus subtilis [12]): 100 µg/mL (≈ 365 µM)
inhibition zone (IZ) (Pseudomonas aeruginosa [13]): 11 mm
MIC (Bacillus subtilis [14]): 50 µg/mL (≈ 182 µM)
inhibition of growth at 10 µM (NCI-H226): 15.1%
inhibition of growth at 10 µM [17]: 17.6%
inhibition zone (IZ) (Candida albicans [15]): 14 mm

O=[N+]([O-])c1ccc(-c2nnc3c(Cc4ccccc4)nc4ccccc4n23)cc1
MFC (Candida albicans [1]): 50 µg/mL (≈ 131 µM)
MIC (Escherichia coli [2]): 100 µg/mL (≈ 262 µM)
MIC (Pseudomonas aeruginosa [3]): 50 µg/mL (≈ 131 µM)
MIC (Staphylococcus aureus [4]): 50 µg/mL (≈ 131 µM)
MBC (Pseudomonas aeruginosa [5]): 50 µg/mL (≈ 131 µM)
inhibition zone (IZ) (Bacillus subtilis [6]): 12 mm
MBC (Staphylococcus aureus [7]): 100 µg/mL (≈ 262 µM)
MIC (Candida albicans [8]): 25 µg/mL (≈ 65.5 µM)
MBC (Escherichia coli [9]): 100 µg/mL (≈ 262 µM)
inhibition zone (IZ) (Staphylococcus aureus [10]): 14 mm
inhibition zone (IZ) (Escherichia coli [11]): 14 mm
MBC (Bacillus subtilis [12]): 100 µg/mL (≈ 262 µM)
inhibition zone (IZ) (Pseudomonas aeruginosa [13]): 12 mm
MIC (Bacillus subtilis [14]): 100 µg/mL (≈ 262 µM)
inhibition zone (IZ) (Candida albicans [15]): 15 mm

Brc1ccc(C2=NN=C3C(Cc4ccccc4)=Nc4ccccc4N3C2)cc1
MFC (Candida albicans [1]): 50 µg/mL (≈ 116 µM)
MIC (Escherichia coli [2]): 50 µg/mL (≈ 116 µM)
MIC (Pseudomonas aeruginosa [3]): 100 µg/mL (≈ 233 µM)
MIC (Staphylococcus aureus [4]): 50 µg/mL (≈ 116 µM)
MBC (Pseudomonas aeruginosa [5]): 100 µg/mL (≈ 233 µM)
inhibition zone (IZ) (Bacillus subtilis [6]): 12 mm
MBC (Staphylococcus aureus [7]): 50 µg/mL (≈ 116 µM)
MIC (Candida albicans [8]): 50 µg/mL (≈ 116 µM)
MBC (Escherichia coli [9]): 50 µg/mL (≈ 116 µM)
inhibition zone (IZ) (Staphylococcus aureus [10]): 12 mm
inhibition zone (IZ) (Escherichia coli [11]): 14 mm
MBC (Bacillus subtilis [12]): 50 µg/mL (≈ 116 µM)
inhibition zone (IZ) (Pseudomonas aeruginosa [13]): 12 mm
MIC (Bacillus subtilis [14]): 50 µg/mL (≈ 116 µM)
inhibition zone (IZ) (Candida albicans [15]): 14 mm

CCOC(=O)C/C(C)=N\Nc1nc2ccccc2nc1Cc1ccccc1
MFC (Candida albicans [1]): 100 µg/mL (≈ 276 µM)
MIC (Escherichia coli [2]): 50 µg/mL (≈ 138 µM)
MIC (Pseudomonas aeruginosa [3]): 100 µg/mL (≈ 276 µM)
MIC (Staphylococcus aureus [4]): 100 µg/mL (≈ 276 µM)
MBC (Pseudomonas aeruginosa [5]): 100 µg/mL (≈ 276 µM)
inhibition zone (IZ) (Bacillus subtilis [6]): 12 mm
MBC (Staphylococcus aureus [7]): 100 µg/mL (≈ 276 µM)
MIC (Candida albicans [8]): 50 µg/mL (≈ 138 µM)
MBC (Escherichia coli [9]): 100 µg/mL (≈ 276 µM)
inhibition zone (IZ) (Staphylococcus aureus [10]): 15 mm
inhibition of growth at 10 µM (UO-31): 15.8%
inhibition zone (IZ) (Escherichia coli [11]): 14 mm
inhibition of growth at 10 µM (A498): 17.8%
MBC (Bacillus subtilis [12]): 50 µg/mL (≈ 138 µM)
inhibition zone (IZ) (Pseudomonas aeruginosa [13]): 12 mm
MIC (Bacillus subtilis [14]): 50 µg/mL (≈ 138 µM)
inhibition zone (IZ) (Candida albicans [15]): 14 mm

Nc1cc(-c2ccc(Cl)cc2)nn1-c1nc2ccccc2nc1Cc1ccccc1
MFC (Candida albicans [1]): 50 µg/mL (≈ 121 µM)
MIC (Escherichia coli [2]): 100 µg/mL (≈ 243 µM)
MIC (Pseudomonas aeruginosa [3]): 50 µg/mL (≈ 121 µM)
inhibition of growth at 10 µM (MDA-MB-231): 24.9%
inhibition of growth at 10 µM (CAKI-1): 19.3%
inhibition of growth at 10 µM (A549): 22%
inhibition of growth at 10 µM [18]: 21.4%
MIC (Staphylococcus aureus [4]): 100 µg/mL (≈ 243 µM)
MBC (Pseudomonas aeruginosa [5]): 50 µg/mL (≈ 121 µM)
inhibition of growth at 10 µM (HCT-15): 25.6%
inhibition zone (IZ) (Bacillus subtilis [6]): 15 mm
MBC (Staphylococcus aureus [7]): 100 µg/mL (≈ 243 µM)
MIC (Candida albicans [8]): 50 µg/mL (≈ 121 µM)
MBC (Escherichia coli [9]): 100 µg/mL (≈ 243 µM)
inhibition zone (IZ) (Staphylococcus aureus [10]): 14 mm
inhibition zone (IZ) (Escherichia coli [11]): 16 mm
inhibition of growth at 10 µM (HCT-116): 27.2%
inhibition of growth at 10 µM (SNB-75): 15.6%
MBC (Bacillus subtilis [12]): 100 µg/mL (≈ 243 µM)
inhibition zone (IZ) (Pseudomonas aeruginosa [13]): 12 mm
MIC (Bacillus subtilis [14]): 100 µg/mL (≈ 243 µM)
inhibition of growth at 10 µM [19]: 21.3%
inhibition of growth at 10 µM (NCI-H226): 15.7%
inhibition of growth at 10 µM (HT-29): 30.3%
inhibition of growth at 10 µM (NCI-H23): 18.5%
inhibition zone (IZ) (Candida albicans [15]): 16 mm
